PubChem BioAssay (NCI)
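The compound was tested at five concentrations on cells cultured in 96-well plates, with a 48-hour exposure period. Here, GI50 denotes the concentration required for 50% inhibition of growth. TGI marks complete inhibition of growth.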

Tests used:
Assay in all cases: NCI tumour cell line growth inhibition, 48 h
U251 CNS = test system: U251 CNS
SF-295 CNS = test system: SF-295 CNS
UACC-257 melanoma = test system: UACC-257 melanoma
LOX IMVI melanoma = test system: LOX IMVI melanoma
SNB-19 CNS = test system: SNB-19 CNS
NCI-H460 lung = test system: NCI-H460 lung
SK-MEL-5 melanoma = test system: SK-MEL-5 melanoma
HOP-62 NSCLC = test system: HOP-62 NSCLC
EKVX NSCLC = test system: EKVX NSCLC
SNB-75 CNS = test system: SNB-75 CNS

Compound	GI50 (U251 CNS) [µM]	TGI (U251 CNS) [µM]	GI50 (SF-295 CNS) [µM]	TGI (SF-295 CNS) [µM]	GI50 (UACC-257 melanoma) [µM]	TGI (UACC-257 melanoma) [µM]	GI50 (LOX IMVI melanoma) [µM]	TGI (LOX IMVI melanoma) [µM]	GI50 (SNB-19 CNS) [µM]	TGI (SNB-19 CNS) [µM]	GI50 (NCI-H460 lung) [µM]	TGI (NCI-H460 lung) [µM]	GI50 (SK-MEL-5 melanoma) [µM]	TGI (SK-MEL-5 melanoma) [µM]	GI50 (HOP-62 NSCLC) [µM]	TGI (HOP-62 NSCLC) [µM]	GI50 (EKVX NSCLC) [µM]	TGI (EKVX NSCLC) [µM]	GI50 (SNB-75 CNS) [µM]	TGI (SNB-75 CNS) [µM]
CCCCCCNC(=O)Oc1ccc(/C(=C(/C)Cc2ccc(OC)cc2)c2ccc(OCCCN(C)C)cc2)cc1	13	26.5	14.7	28.3	19.3	35.3	2.61	15.6	17.2	31.5	14.1	28.2	16.4	30.1	18.4	34.2	13.2	27.5	12.6	25.6
CCC(c1ccc(OC)cc1)C(CC)c1ccc(O)c(CN2CCN(C)CC2)c1 (stereo not given)	2.73	12.2	2.06	3.95	2.1	4.97	2.48	7.64	4.88	18.5	3.04	8.2	1.69	3.22	11	26.2	5.37	19.2	10	23
CN(C)c1nnnn1-c1c(N)n(C)c(=O)n(C)c1=O		> 100		> 100		> 100		> 100		> 100		> 100		> 100		> 100		> 100		> 100
Cc1ccc(-c2c3c(nn2-c2ccc(S(N)(=O)=O)cc2)-c2ccccc2C3)cc1	19	34.7	20.7	47.3	21.9	40.3	18.2	40.5	37.4	> 100	19.1	43.7	1.21	5.76	20.6	36.1	19.5	51.7	17.5	33.8
O=C(CN1CCN(c2cc3c(cc2F)c(=O)c(C(=O)O)cn3C2CC2)CC1)Nc1nc(-c2ccc(Cl)cc2)cs1	3.74	> 100	2.77	29.6	3.94	22.2	3.39	19	4.71	> 100	3.03	12.7	2.76	8.05	4.16	> 100	4.45	> 100	3.71	> 100
CS(=O)(=O)NNS(=O)(=O)c1ccccc1		> 100		> 100		> 100		> 100		> 100		> 100		> 100		> 100		> 100		> 100
COC(=O)CCC1CCc2c(OC)ccc(OC)c2C1=O (stereo not given)		> 100		> 100		> 100		> 100		> 100		> 100		> 100		> 100		> 100		> 100
COc1ccc2c(c1)CC[C@@H]1[C@@H]2CC[C@]2(C)[C@@H](NC(=O)/C=C/c3ccc(O)c(O)c3)CC[C@@H]12	2.88	11.2	12.8	27.1	13.4	31.8	3.15	13.7	15.7	48.6	2.7	9.93	3.86	16.4	3.03	11.1	9.98	24.5	21.9	> 100
O=[N+]([O-])c1ccc(Oc2nc(Nc3ccc(O[C@H]4CO[C@H]5[C@@H]4OC[C@@H]5O)c(Cl)c3)ncc2F)c(Cl)c1	1.66	6.51	1.39	2.92	1.78	4.27	0.667	2.28	2.89	9.81	0.853	2.98	1.29	2.59	1.63	4.65	2.22	9.43	0.443	3.28
O=C(O)C1CCCCC1c1c2ccc(=O)c(O)c-2oc2c(O)c(O)ccc12 (stereo not given)		24.8		56.4		> 100		32.6		> 100		> 100		> 100		94.4		> 100		> 100
Cc1nnc2c3nnc(C)n3c3ccccc3n12		> 100		> 100		> 100		> 100		> 100		> 100		> 100		> 100		> 100		> 100
COc1ccc(S(=O)(=O)NC2=NCCN2C(=S)SN2CCn3c2nsc3=S)cc1	18.8	40.5	20.8	53.6	16.8	50.2	15.5	33.1	32.9	> 100	17.1	44.2	17.8	31.7	18.9	39.2	15.8	30.6	19.5	42.5
